Drawing on ChEMBL document CHEMBL1938391, “Design and synthesis of novel photoaffinity probes for study of the target proteins of oleanolic acid” (Bioorg Med Chem Lett, 2012), this text covers IC50 for two compounds.

The assay addresses T1, Glycogen phosphorylase, muscle form (Oryctolagus cuniculus, UniProt P00489).
T1 sequence (P00489 whole entry): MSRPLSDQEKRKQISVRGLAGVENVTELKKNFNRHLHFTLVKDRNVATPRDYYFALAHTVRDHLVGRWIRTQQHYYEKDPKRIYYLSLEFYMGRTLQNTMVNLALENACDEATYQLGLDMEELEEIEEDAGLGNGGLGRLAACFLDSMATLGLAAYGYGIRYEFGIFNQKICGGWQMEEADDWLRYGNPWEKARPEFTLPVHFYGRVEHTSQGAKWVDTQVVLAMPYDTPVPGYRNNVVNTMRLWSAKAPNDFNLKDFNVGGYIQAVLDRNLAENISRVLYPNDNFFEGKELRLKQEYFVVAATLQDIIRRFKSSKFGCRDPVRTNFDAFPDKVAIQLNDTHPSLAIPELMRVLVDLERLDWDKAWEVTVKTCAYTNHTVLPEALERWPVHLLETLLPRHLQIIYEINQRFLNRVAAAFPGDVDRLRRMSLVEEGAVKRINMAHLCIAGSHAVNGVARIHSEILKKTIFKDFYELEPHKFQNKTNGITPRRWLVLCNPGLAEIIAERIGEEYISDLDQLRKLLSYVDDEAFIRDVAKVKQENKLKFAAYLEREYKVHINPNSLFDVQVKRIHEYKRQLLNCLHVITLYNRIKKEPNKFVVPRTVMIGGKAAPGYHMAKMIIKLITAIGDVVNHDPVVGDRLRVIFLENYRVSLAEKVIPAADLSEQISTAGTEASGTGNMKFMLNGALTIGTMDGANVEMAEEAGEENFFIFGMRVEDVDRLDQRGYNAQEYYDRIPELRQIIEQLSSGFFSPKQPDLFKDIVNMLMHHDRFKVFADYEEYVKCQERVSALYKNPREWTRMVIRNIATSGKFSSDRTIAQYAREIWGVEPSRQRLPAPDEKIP
In words: Inhibition of rabbit muscle glycogen phosphorylase a assessed as release of phosphate from glucose-1-phosphate after 25 mins using malachite green staining.

Turning to `CC1(C)CC[C@]2(C(=O)O)CC[C@]3(C)C(=CC[C@@H]4[C@@]5(C)CC[C@H](OC(=O)COCCOCCNC(=O)c6ccc(C(=O)c7ccc(NC(=O)CCCC[C@@H]8SC[C@@H]9NC(=O)N[C@@H]98)cc7)cc6)C(C)(C)[C@@H]5CC[C@]43C)[C@@H]2C1`, the concentration for half-maximal inhibition (IC50) worked out at 41.1 µM.

As for `CC1(C)CC[C@]2(C(=O)O)CC[C@]3(C)C(=CC[C@@H]4[C@@]5(C)CC[C@H](OC(=O)COCCOCCNC(=O)c6ccc(C(=O)c7ccc(NC(=O)CN=[N+]=[N-])cc7)cc6)C(C)(C)[C@@H]5CC[C@]43C)[C@@H]2C1`, the half-maximal inhibitory concentration (IC50) stood at 115 µM.

In general, IC50 refers to the concentration at which inhibition is half-maximal.
